Counter-ions that a name gives are not always drawn.
Columns and labels:
Conditions in all cases: 72 h
HepG2 [1] = assay: relative viability EC50 (midpoint between 100% and the lowest measured viability); higher = less toxic
Caco-2 [2] = assay: as above
Calu-3 [3] = assay: as above
Vero E6 [4] = assay: as above
U2OS [5] = assay: as above
HepG2 [6] = assay: cell viability relative to DMSO; higher = less toxic
Caco-2 [7] = assay: as above
Calu-3 [8] = assay: as above
Vero E6 [9] = assay: as above
U2OS [10] = assay: as above
HepG2 [11] = assay: drug sensitivity score (DSS) for viability; higher = more toxic; extreme values may be limits of the assay
Caco-2 [12] = assay: as above
Calu-3 [13] = assay: as above
Vero E6 [14] = assay: as above
U2OS [15] = assay: as above

Structure (SMILES)	relative viability EC50 (HepG2 [1])	relative viability EC50 (Caco-2 [2])	relative viability EC50 (Calu-3 [3])	relative viability EC50 (Vero E6 [4])	relative viability EC50 (U2OS [5])	cell viability (HepG2 [6]; 1 nM)	cell viability (HepG2 [6]; 10 nM)	cell viability (HepG2 [6]; 100 nM)	cell viability (HepG2 [6]; 1000 nM)	cell viability (HepG2 [6]; 10000 nM)	cell viability (Caco-2 [7]; 1 nM)	cell viability (Caco-2 [7]; 10 nM)	cell viability (Caco-2 [7]; 100 nM)	cell viability (Caco-2 [7]; 1000 nM)	cell viability (Caco-2 [7]; 10000 nM)	cell viability (Calu-3 [8]; 1 nM)	cell viability (Calu-3 [8]; 10 nM)	cell viability (Calu-3 [8]; 100 nM)	cell viability (Calu-3 [8]; 1000 nM)	cell viability (Calu-3 [8]; 10000 nM)	cell viability (Vero E6 [9]; 1 nM)	cell viability (Vero E6 [9]; 10 nM)	cell viability (Vero E6 [9]; 100 nM)	cell viability (Vero E6 [9]; 1000 nM)	cell viability (Vero E6 [9]; 10000 nM)	cell viability (U2OS [10]; 1 nM)	cell viability (U2OS [10]; 10 nM)	cell viability (U2OS [10]; 100 nM)	cell viability (U2OS [10]; 1000 nM)	cell viability (U2OS [10]; 10000 nM)	drug sensitivity score (HepG2 [11])	drug sensitivity score (Caco-2 [12])	drug sensitivity score (Calu-3 [13])	drug sensitivity score (Vero E6 [14])	drug sensitivity score (U2OS [15])
CNC(=N)NCCC[C@H](N)C(=O)O [targinine]	> 10 µM	> 10 µM	> 10 µM	> 10 µM	> 10 µM	94.1%	103%	96.9%	98.6%	96.3%	98.1%	98%	101%	96.8%	96%	96.7%	96.9%	96.8%	111%	99.2%	96.3%	98.1%	95.9%	99.6%	81.3%	105%	96.9%	101%	101%	102%	0	0	0	0.5	0
COc1cc(C(=O)N2CCOCC2)cc(OC)c1OC [trimetozine]	> 10 µM	> 10 µM	> 10 µM	> 10 µM	> 10 µM	93.8%	92.9%	102%	95.3%	98.8%	95.4%	105%	86.4%	108%	96.6%	98.9%	94.8%	101%	92.1%	102%	106%	107%	108%	94.8%	99.9%	95.8%	98.3%	96.8%	99.9%	96.6%	0	0	0	0	0
CN1CCN2c3c(cccc31)[C@@H]1CN(CCCC(=O)c3ccc(F)cc3)CC[C@@H]12 [lumateperone]	> 10 µM	> 10 µM	> 10 µM	> 10 µM	> 10 µM	100%	91.6%	103%	101%	80.7%	96.5%	100%	97.1%	97.6%	78.8%	101%	112%	98.3%	110%	92.3%	98.4%	92.7%	101%	99.6%	97.3%	96.6%	102%	94.1%	99.6%	89.1%	0.5	1	0	0	0
CCCN1CCO[C@@H]2c3cc(O)ccc3OC[C@H]21	> 10 µM	> 10 µM	> 10 µM	> 10 µM	> 10 µM	106%	104%	100%	92%	105%	101%	116%	97.8%	109%	102%	102%	110%	95%	105%	90.6%	99.7%	101%	102%	101%	95.7%	102%	106%	97.1%	102%	99.7%	0	0	0	0	0
C=CCNC1=C2C[C@@H](C)C[C@H](OC)[C@H](O)[C@@H](C)/C=C(\C)[C@H](OC(N)=O)[C@@H](OC)/C=C\C=C(/C)C(=O)NC(=CC1=O)C2=O [tanespimycin]	0.0174 µM	1.18 µM	0.161 µM	0.768 µM	0.164 µM	113%	80.2%	1.9%	1.3%	2.2%	93.6%	98.8%	101%	71.8%	29.2%	108%	105%	83.3%	40.2%	38.2%	108%	100%	104%	51.4%	26.5%	101%	102%	73.2%	4.8%	1.8%	33.3	7.7	13.5	9.8	21
CC(C)(N)c1nc(-c2ccc(OC(F)(F)F)cc2)c[nH]1	> 10 µM	> 10 µM	> 10 µM	> 10 µM	> 10 µM	96%	107%	101%	117%	104%	95.8%	96.5%	91.3%	92%	88%	107%	102%	90.1%	105%	113%	95.9%	97.7%	94.6%	94.9%	107%	98.2%	94.1%	96.5%	95.6%	95.4%	0	0.1	0	0	0
C[C@H]1C[C@H]2[C@@H]3CCC4=CC(=O)C=C[C@]4(C)[C@H]3C(=O)C[C@]2(C)[C@@]1(O)C(=O)CO [Betapar (Meprednisone)]	> 10 µM	> 10 µM	> 10 µM	> 10 µM	> 10 µM	83.6%	97.3%	95.5%	95.9%	86.5%	86.1%	91.1%	87.4%	103%	94.8%	92.9%	93.2%	91.5%	91%	97.8%	103%	102%	101%	99.7%	97.4%	97.6%	98.3%	96%	98.2%	95.1%	0	0	0	0	0
CN1[C@@H]2CC[C@H]1C[C@@H](OC(=O)C(CO)c1ccccc1)C2 (stereo not given in full) [ATROPINE SULFATE]	> 10 µM	> 10 µM	> 10 µM	> 10 µM	> 10 µM	102%	91.5%	105%	84.3%	98.2%	93.2%	95%	67.1%	99.6%	98.5%	96.2%	102%	88.4%	104%	96.1%	112%	99.7%	109%	99.4%	106%	96.5%	102%	102%	102%	103%	0	0	0	0	0
COc1ccccc1CN[C@H]1CCCN[C@H]1c1ccccc1	> 10 µM	> 10 µM	> 10 µM	> 10 µM	> 10 µM	94.2%	103%	91.1%	99.6%	94.2%	107%	92.7%	109%	98.9%	104%	93.7%	93.6%	93.7%	104%	98.7%	101%	103%	98%	105%	92.1%	99%	94.6%	96.2%	93.1%	97.4%	0	0	0	0	0
C[C@@]1(O)[C@H](O)[C@@H](CO)O[C@H]1n1ccc(N)nc1=O [NM107]	> 10 µM	> 10 µM	> 10 µM	> 10 µM	> 10 µM	99%	107%	106%	111%	110%	93%	97.3%	95.9%	91.2%	103%	99.1%	104%	95%	93.9%	84.6%	96%	100%	88.7%	99.4%	113%	98.3%	93.4%	100%	94.8%	101%	0	0	0.3	0	0
CCc1cnn2c(NCc3ccc[n+]([O-])c3)cc(N3CCCC[C@H]3CCO)nc12 [dinaciclib]	0.0105 µM	0.0147 µM	0.0147 µM	0.044 µM	0.0107 µM	99.9%	55.6%	5.7%	6.4%	6.4%	100%	77.9%	19.9%	25.1%	30.8%	103%	83.2%	39.9%	39.3%	39.6%	101%	100%	14.8%	7%	4.5%	99.3%	56%	3.6%	4%	5.4%	34.5	28.2	21.6	27.5	35.2
CC(C)C1=C2[C@H]3CC[C@@H]4[C@@]5(C)CC[C@H](OC(=O)CC(C)(C)C(=O)O)C(C)(C)[C@@H]5CC[C@@]4(C)[C@]3(C)CC[C@@]2([C@@H](O)CN(CCN(C)C)Cc2ccc(Cl)cc2)CC1=O	> 10 µM	> 10 µM	> 10 µM	> 10 µM	> 10 µM	96.7%	105%	100%	99.6%	95.4%	96.3%	98.7%	97.7%	100%	97.2%	95.7%	91.8%	106%	104%	105%	102%	106%	106%	99.5%	105%	95.3%	97.8%	94.3%	94.9%	94.2%	0	0	0	0	0
CCCCn1c(-c2ccccc2)nc(-c2ccccc2)c1CN(Cc1ccc2c(c1)OCO2)Cc1ccc2c(c1)OCO2	> 10 µM	> 10 µM	> 10 µM	> 10 µM	> 10 µM	102%	102%	96.3%	95.5%	89.4%	94.2%	105%	95.1%	92.7%	77.5%	107%	102%	107%	101%	96.7%	106%	101%	100%	101%	97.7%	95.8%	97.6%	91.4%	94%	85.6%	0	1.2	0	0	0.2
O=C(/C=C/c1cccc(F)c1)NC1CC1 [cinflumide]	> 10 µM	> 10 µM	> 10 µM	> 10 µM	> 10 µM	92.8%	101%	101%	97.7%	84.8%	104%	99.9%	95.5%	99.3%	98.1%	96.8%	91.7%	102%	99.9%	96.4%	101%	98.7%	106%	102%	91.8%	98.9%	101%	91.5%	98%	99.8%	0.5	0	0	0	0
